These results are taken from the supplement of paper PMC10307832.

Holding throughout (assay): relative viability (nuclei count vs DMSO), 5 days (fraction); higher = more cells survive
Compound in the assay “Shikonin + Alpelisib”: CC(C)=CC[C@@H](O)C1=CC(=O)c2c(O)ccc(O)c2C1=O [Shikonin] + Cc1nc(NC(=O)N2CCC[C@H]2C(N)=O)sc1-c1ccnc(C(C)(C)C(F)(F)F)c1 [Alpelisib] (partner 2 µM)
An outline of the steps: (§1)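 Relative viability equals treated-well nuclei counts divided by vehicle-well nuclei counts. Counts came from 4× images of lung cancer cell lines grown in 1536-well plates for 5 days after pin-tool dosing on the day after seeding. Dosing used one drug alone or a fixed anchor-drug dose plus five library-drug doses (not always all listed) in √10 steps, and values are medians of duplicate plates.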

Compound in assay [1]: CC(C)N(CCCNC(=O)Nc1ccc(C(C)(C)C)cc1)C[C@H]1O[C@@H](n2ccc3c(N)ncnc32)[C@H](O)[C@@H]1O + Nc1nc2[nH]cc(CCc3ccc(C(=O)N[C@@H](CCC(=O)O)C(=O)O)cc3)c2c(=O)[nH]1 [Pemetrexed] (partner 0.2 µM)
An outline of the steps:
as §1

Compound in assay [2]: CC(C)N(CCCNC(=O)Nc1ccc(C(C)(C)C)cc1)C[C@H]1O[C@@H](n2ccc3c(N)ncnc32)[C@H](O)[C@@H]1O + CS(=O)(=O)N1CCN(Cc2cc3nc(-c4cccc5[nH]ncc45)nc(N4CCOCC4)c3s2)CC1 [Pictilisib] (partner 1 µM)
The gist of the method: as §1

Compound in the assay “Shikonin + Palbociclib”: CC(C)=CC[C@@H](O)C1=CC(=O)c2c(O)ccc(O)c2C1=O [Shikonin] + CC(=O)c1c(C)c2cnc(Nc3ccc(N4CCNCC4)cn3)nc2n(C2CCCC2)c1=O [Palbociclib] (partner 0.5 µM)
An outline of the steps:
as §1

Consider NCI-H3122, for which the relative viability in the assay with Shikonin + Alpelisib (first compound 0.01 µM) was found to be 0.752; with Shikonin + Alpelisib (first compound 0.1 µM) it was 0.823; with Shikonin + Alpelisib (first compound 0.3162 µM), 0.844; with Shikonin + Alpelisib (first compound 1 µM), 0.79; in assay [1] (first compound 0.08 µM), 0.211; in assay [1] (first compound 0.253 µM) it was 0.194. The relative viability was 0.198 in assay [1] (first compound 0.8 µM); 0.192 in assay [1] (first compound 2.53 µM); 0.199 in assay [1] (first compound 8 µM); 0.653 in assay [2] (first compound 0.08 µM); 0.576 in assay [2] (first compound 0.253 µM); 0.634 in assay [2] (first compound 0.8 µM). The relative viability in assay [2] (first compound 2.53 µM) amounted to 0.493; in assay [2] (first compound 8 µM), 0.553; in the assay with Shikonin + Palbociclib (first compound 0.01 µM) it was 0.228; with Shikonin + Palbociclib (first compound 0.1 µM), 0.215; in the assay with Shikonin + Palbociclib (first compound 0.3162 µM), 0.178; in the assay with Shikonin + Palbociclib (first compound 1 µM), 0.176.

Take NCI-H441: the relative viability with Shikonin + Alpelisib (first compound 0.01 µM) is 1.14; in the assay with Shikonin + Alpelisib (first compound 0.1 µM), 0.874; with Shikonin + Alpelisib (first compound 0.3162 µM), 0.508; with Shikonin + Alpelisib (first compound 1 µM), 0.729; in assay [1] (first compound 0.08 µM), 0.271; in assay [1] (first compound 0.253 µM) it was 0.242. Moreover, the relative viability in assay [1] (first compound 2.53 µM) came to 0.263; in assay [1] (first compound 8 µM), 0.253; in assay [2] (first compound 0.08 µM) it was 0.442; in assay [2] (first compound 0.253 µM), 0.423; in assay [2] (first compound 0.8 µM) it was 0.361; in assay [2] (first compound 2.53 µM), 0.539. The relative viability in assay [2] (first compound 8 µM) worked out at 0.47; with Shikonin + Palbociclib (first compound 0.01 µM) it was 0.225; with Shikonin + Palbociclib (first compound 0.1 µM), 0.219; with Shikonin + Palbociclib (first compound 0.3162 µM), 0.225; in the assay with Shikonin + Palbociclib (first compound 1 µM), 0.231.

For NCI-H2170, the relative viability was 0.824 in the assay with Shikonin + Alpelisib (first compound 0.01 µM); 0.672 with Shikonin + Alpelisib (first compound 0.1 µM); 0.92 with Shikonin + Alpelisib (first compound 0.3162 µM); 0.793 with Shikonin + Alpelisib (first compound 1 µM); 0.261 in assay [1] (first compound 0.08 µM); 0.263 in assay [1] (first compound 0.253 µM). Further, the relative viability in assay [1] (first compound 0.8 µM) turned out to be 0.261; in assay [1] (first compound 2.53 µM), 0.296; in assay [1] (first compound 8 µM), 0.29; in assay [2] (first compound 0.08 µM), 0.36; in assay [2] (first compound 0.253 µM), 0.262; in assay [2] (first compound 0.8 µM) it was 0.336. For the same cell line, the relative viability in assay [2] (first compound 2.53 µM) amounted to 0.372; in assay [2] (first compound 8 µM), 0.323; in the assay with Shikonin + Palbociclib (first compound 0.01 µM), 0.392; with Shikonin + Palbociclib (first compound 0.1 µM) it was 0.376; with Shikonin + Palbociclib (first compound 0.3162 µM), 0.395; with Shikonin + Palbociclib (first compound 1 µM), 0.422.

As for NCI-H1395, the relative viability with Shikonin + Alpelisib (first compound 0.01 µM) turned out to be 1.14; with Shikonin + Alpelisib (first compound 0.1 µM), 1.16; in the assay with Shikonin + Alpelisib (first compound 0.3162 µM), 0.973; in the assay with Shikonin + Alpelisib (first compound 1 µM) it was 1; in assay [1] (first compound 0.08 µM) it was 0.882; in assay [1] (first compound 0.253 µM) it was 0.705. The relative viability in assay [1] (first compound 0.8 µM) is 0.553; in assay [1] (first compound 2.53 µM), 0.899; in assay [1] (first compound 8 µM) it was 0.922; in assay [2] (first compound 0.08 µM) it was 0.595; in assay [2] (first compound 0.253 µM), 0.55; in assay [2] (first compound 2.53 µM), 0.59. The relative viability in assay [2] (first compound 8 µM) was determined as 0.738; with Shikonin + Palbociclib (first compound 0.01 µM), 0.524; with Shikonin + Palbociclib (first compound 0.1 µM), 0.664; with Shikonin + Palbociclib (first compound 0.3162 µM) it was 0.596; with Shikonin + Palbociclib (first compound 1 µM), 0.628.

As for NCI-H358, the relative viability was 0.825 with Shikonin + Alpelisib (first compound 0.01 µM); 0.807 with Shikonin + Alpelisib (first compound 0.1 µM); 0.924 with Shikonin + Alpelisib (first compound 0.3162 µM); 0.707 in the assay with Shikonin + Alpelisib (first compound 1 µM); 0.183 in assay [1] (first compound 0.08 µM); 0.159 in assay [1] (first compound 0.253 µM). The relative viability turned out to be 0.162 in assay [1] (first compound 0.8 µM); 0.168 in assay [1] (first compound 2.53 µM); 0.166 in assay [1] (first compound 8 µM); 0.356 in assay [2] (first compound 0.08 µM); 0.335 in assay [2] (first compound 0.253 µM); 0.317 in assay [2] (first compound 0.8 µM). Also, the relative viability in assay [2] (first compound 2.53 µM) turned out to be 0.359; in assay [2] (first compound 8 µM) it was 0.342; with Shikonin + Palbociclib (first compound 0.01 µM), 0.139; with Shikonin + Palbociclib (first compound 0.1 µM), 0.132; with Shikonin + Palbociclib (first compound 0.3162 µM) it was 0.131; in the assay with Shikonin + Palbociclib (first compound 1 µM) it was 0.131.

For PC-3 [JPC-3], the relative viability was 1.04 with Shikonin + Alpelisib (first compound 0.01 µM); 1.11 with Shikonin + Alpelisib (first compound 0.1 µM); 1.05 in the assay with Shikonin + Alpelisib (first compound 0.3162 µM); 1.08 in the assay with Shikonin + Alpelisib (first compound 1 µM); 1.06 in assay [1] (first compound 0.08 µM); 1.08 in assay [1] (first compound 0.253 µM). In addition, the relative viability in assay [1] (first compound 2.53 µM) came out at 1.09; in assay [1] (first compound 8 µM), 1.08; in assay [2] (first compound 0.08 µM), 0.757; in assay [2] (first compound 0.253 µM), 0.677; in assay [2] (first compound 0.8 µM), 0.658; in assay [2] (first compound 2.53 µM), 0.656. Also, the relative viability in assay [2] (first compound 8 µM) is 0.727; with Shikonin + Palbociclib (first compound 0.01 µM) it was 0.59; with Shikonin + Palbociclib (first compound 0.1 µM) it was 0.589; in the assay with Shikonin + Palbociclib (first compound 0.3162 µM), 0.538; with Shikonin + Palbociclib (first compound 1 µM), 0.552.

With CAL-12T, the relative viability with Shikonin + Alpelisib (first compound 0.01 µM) came to 1.14; with Shikonin + Alpelisib (first compound 0.1 µM), 1.13; in the assay with Shikonin + Alpelisib (first compound 0.3162 µM), 1.19; in the assay with Shikonin + Alpelisib (first compound 1 µM) it was 1.2; in assay [1] (first compound 0.08 µM), 1.21; in assay [1] (first compound 0.253 µM) it was 1.16. In addition, the relative viability in assay [1] (first compound 0.8 µM) is 1.1; in assay [1] (first compound 2.53 µM), 0.983; in assay [1] (first compound 8 µM), 1.05; in assay [2] (first compound 0.08 µM), 0.316; in assay [2] (first compound 0.253 µM), 0.388; in assay [2] (first compound 0.8 µM) it was 0.398. The relative viability in assay [2] (first compound 2.53 µM) worked out at 0.459; in assay [2] (first compound 8 µM) it was 0.47; with Shikonin + Palbociclib (first compound 0.01 µM) it was 0.414; with Shikonin + Palbociclib (first compound 0.1 µM), 0.451; in the assay with Shikonin + Palbociclib (first compound 0.3162 µM), 0.403; in the assay with Shikonin + Palbociclib (first compound 1 µM), 0.438.
